Values belong to the compound of their own block, whether it stands above or below them.
How the values were obtained:
[1] = test system: Rattus norvegicus; assay: Effect on fecal water content in Sprague-Dawley rat at 3 mg/kg administered via oral gavage measured after 16 hrs relative to control; type: functional
[2] = Drug recovery in Sprague-Dawley rat feces at 0.1 mg/kg administered via oral gavage measured after 72 hrs by LC/MS/MS analysis; type: ADME, organism-based; settings: faeces, read-out: Drug recovery
[3] = target: Sodium/hydrogen exchanger 1 (Homo sapiens, UniProt P19634); assay: Inhibition of NHE-1 (unknown origin)
Sequence of Sodium/hydrogen exchanger 1 (P19634 whole entry): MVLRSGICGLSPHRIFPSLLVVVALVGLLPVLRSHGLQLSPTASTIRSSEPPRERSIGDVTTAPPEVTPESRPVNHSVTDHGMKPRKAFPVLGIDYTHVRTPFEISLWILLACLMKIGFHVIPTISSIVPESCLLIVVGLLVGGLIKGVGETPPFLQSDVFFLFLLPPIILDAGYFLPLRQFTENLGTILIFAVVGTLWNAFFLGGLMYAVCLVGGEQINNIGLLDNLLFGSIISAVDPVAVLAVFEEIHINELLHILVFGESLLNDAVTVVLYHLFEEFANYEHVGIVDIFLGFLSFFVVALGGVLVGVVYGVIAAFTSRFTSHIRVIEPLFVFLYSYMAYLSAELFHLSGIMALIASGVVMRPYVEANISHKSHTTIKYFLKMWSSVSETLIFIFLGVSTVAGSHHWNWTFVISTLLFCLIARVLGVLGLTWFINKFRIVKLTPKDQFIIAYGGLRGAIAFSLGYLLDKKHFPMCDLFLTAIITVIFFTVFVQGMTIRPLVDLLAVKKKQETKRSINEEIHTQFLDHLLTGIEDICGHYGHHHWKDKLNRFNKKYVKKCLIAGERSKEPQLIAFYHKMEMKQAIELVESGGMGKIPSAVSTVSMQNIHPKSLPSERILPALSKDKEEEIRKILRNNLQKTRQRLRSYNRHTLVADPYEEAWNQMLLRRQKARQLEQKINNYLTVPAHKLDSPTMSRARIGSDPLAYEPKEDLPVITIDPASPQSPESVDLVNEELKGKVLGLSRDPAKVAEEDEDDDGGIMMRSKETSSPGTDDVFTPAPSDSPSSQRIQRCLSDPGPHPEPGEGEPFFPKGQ

[4] = target: T1, Sodium/hydrogen exchanger 2 (Homo sapiens, UniProt Q9UBY0); assay: Inhibition of NHE-2 (unknown origin)
T1 sequence (Q9UBY0 whole entry): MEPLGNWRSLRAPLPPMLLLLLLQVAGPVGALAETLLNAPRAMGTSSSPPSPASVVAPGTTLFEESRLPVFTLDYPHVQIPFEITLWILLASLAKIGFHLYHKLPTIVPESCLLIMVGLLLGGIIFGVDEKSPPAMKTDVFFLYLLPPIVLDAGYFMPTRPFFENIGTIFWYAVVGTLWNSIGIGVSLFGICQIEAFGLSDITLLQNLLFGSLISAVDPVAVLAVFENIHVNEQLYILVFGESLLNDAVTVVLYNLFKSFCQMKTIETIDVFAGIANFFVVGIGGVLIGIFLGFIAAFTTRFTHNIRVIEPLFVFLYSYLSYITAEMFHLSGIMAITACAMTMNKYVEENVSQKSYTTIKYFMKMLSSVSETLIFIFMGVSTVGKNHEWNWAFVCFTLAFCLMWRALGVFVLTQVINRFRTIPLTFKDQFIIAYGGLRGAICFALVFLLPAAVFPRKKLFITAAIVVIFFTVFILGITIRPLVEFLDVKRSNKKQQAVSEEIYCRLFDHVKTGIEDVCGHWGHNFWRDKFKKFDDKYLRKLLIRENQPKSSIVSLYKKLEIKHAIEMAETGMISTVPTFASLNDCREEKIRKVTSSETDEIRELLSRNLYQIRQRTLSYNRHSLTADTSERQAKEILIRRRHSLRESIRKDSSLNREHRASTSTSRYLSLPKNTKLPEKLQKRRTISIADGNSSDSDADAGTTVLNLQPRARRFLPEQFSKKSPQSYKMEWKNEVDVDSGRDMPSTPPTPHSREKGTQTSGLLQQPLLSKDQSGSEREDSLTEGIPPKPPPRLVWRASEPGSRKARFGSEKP

[5] = target: T2, Sodium/hydrogen exchanger 5 (Homo sapiens, UniProt Q14940); assay: Inhibition of NHE-5 (unknown origin)
T2 sequence (Q14940 whole entry): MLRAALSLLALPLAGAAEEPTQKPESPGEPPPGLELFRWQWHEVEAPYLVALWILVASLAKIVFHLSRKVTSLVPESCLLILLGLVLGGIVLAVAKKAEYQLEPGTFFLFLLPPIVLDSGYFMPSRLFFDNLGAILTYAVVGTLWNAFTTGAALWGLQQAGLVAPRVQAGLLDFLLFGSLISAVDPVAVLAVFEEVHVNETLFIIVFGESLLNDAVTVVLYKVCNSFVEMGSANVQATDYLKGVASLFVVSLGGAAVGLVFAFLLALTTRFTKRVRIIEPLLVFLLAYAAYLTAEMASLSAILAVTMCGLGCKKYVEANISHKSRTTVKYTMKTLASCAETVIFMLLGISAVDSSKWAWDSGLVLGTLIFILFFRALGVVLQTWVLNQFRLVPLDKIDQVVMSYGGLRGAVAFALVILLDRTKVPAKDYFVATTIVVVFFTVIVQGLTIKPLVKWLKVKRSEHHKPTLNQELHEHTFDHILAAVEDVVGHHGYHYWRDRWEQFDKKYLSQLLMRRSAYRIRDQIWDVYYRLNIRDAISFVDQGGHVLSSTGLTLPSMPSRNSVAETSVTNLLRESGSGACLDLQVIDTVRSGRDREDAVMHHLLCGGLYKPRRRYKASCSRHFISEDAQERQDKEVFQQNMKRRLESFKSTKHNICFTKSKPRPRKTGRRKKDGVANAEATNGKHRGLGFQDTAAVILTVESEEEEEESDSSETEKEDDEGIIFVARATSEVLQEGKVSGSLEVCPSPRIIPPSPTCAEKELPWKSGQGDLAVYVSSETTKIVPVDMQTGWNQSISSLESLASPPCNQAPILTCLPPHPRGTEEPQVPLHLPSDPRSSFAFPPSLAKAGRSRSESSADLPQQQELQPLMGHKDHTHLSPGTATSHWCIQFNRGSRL

[6] = target: T3, Sodium/hydrogen exchanger 3 (Homo sapiens, UniProt P48764); assay: Inhibition of NHE-3 (unknown origin)
T3 sequence (P48764 whole entry): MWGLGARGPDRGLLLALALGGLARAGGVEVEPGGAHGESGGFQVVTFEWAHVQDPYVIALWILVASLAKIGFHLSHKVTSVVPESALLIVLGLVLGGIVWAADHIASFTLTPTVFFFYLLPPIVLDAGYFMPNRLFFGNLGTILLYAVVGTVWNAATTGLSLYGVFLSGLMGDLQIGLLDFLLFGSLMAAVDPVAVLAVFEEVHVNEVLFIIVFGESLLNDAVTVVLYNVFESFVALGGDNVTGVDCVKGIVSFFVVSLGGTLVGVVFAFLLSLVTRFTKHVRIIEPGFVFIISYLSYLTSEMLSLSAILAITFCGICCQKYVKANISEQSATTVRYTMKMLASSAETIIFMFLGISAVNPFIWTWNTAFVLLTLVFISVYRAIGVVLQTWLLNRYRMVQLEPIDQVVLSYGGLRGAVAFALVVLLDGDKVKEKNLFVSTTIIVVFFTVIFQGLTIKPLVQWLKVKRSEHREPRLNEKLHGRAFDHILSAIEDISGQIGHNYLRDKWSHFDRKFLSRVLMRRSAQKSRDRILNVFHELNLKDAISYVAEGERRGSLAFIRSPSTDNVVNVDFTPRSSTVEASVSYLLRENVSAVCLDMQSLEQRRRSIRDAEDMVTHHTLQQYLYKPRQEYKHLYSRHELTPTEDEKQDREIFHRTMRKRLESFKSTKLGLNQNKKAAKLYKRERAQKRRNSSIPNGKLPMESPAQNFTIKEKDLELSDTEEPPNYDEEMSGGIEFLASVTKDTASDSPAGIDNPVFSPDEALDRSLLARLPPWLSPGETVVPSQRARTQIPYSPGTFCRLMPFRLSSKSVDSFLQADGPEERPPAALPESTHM

[7] = Cmax in Sprague-Dawley rat at 28 mg/kg administered via oral gavage measured up to 4 hrs by LC/MS/MS analysis; type: ADME, organism-based; design: dose 28 mg/kg, route oral; settings: in vivo
[8] = AUC in Sprague-Dawley rat at 28 mg/kg administered via oral gavage measured up to 4 hrs by LC/MS/MS analysis; type: ADME, organism-based; design: time < 4 hr, dose 28 mg/kg, route oral; settings: in vivo
[9] = test system: Rattus norvegicus; assay: Decrease in urinary sodium level in Sprague-Dawley rat administered via oral gavage measured after 16 hrs by ion chromatographic analysis; type: functional
[10] = Cmax in Sprague-Dawley rat at 2.2 mg/kg administered via oral gavage measured up to 4 hrs by LC/MS/MS analysis; type: ADME, organism-based; design: dose 2.2 mg/kg, route oral; settings: in vivo
[11] = AUC in Sprague-Dawley rat at 2.2 mg/kg administered via oral gavage measured up to 4 hrs by LC/MS/MS analysis; type: ADME, organism-based; design: time < 4 hr, dose 2.2 mg/kg, route oral; settings: in vivo
[12] = test system: Rattus norvegicus; assay: Increase in fecal water content in Sprague-Dawley rat administered via oral gavage measured after 16 hrs; type: functional

Structure (SMILES): CN1Cc2c(Cl)cc(Cl)cc2C(c2cccc(S(=O)(=O)NCCOCCOCCNC(=O)Nc3ccc(NC(=O)NCCOCCOCCNS(=O)(=O)c4cccc(C5CN(C)Cc6c(Cl)cc(Cl)cc65)c4)cc3)c2)C1 (stereo not given)
- Activity [1]: 120%

- dose excreted at 72 h [2]: 75.8 to 104%
Structure (SMILES): CN1Cc2c(Cl)cc(Cl)cc2[C@H](c2cccc(S(=O)(=O)NCCOCCOCCNC(=O)Nc3ccc(NC(=O)NCCOCCOCCNS(=O)(=O)c4cccc([C@@H]5CN(C)Cc6c(Cl)cc(Cl)cc65)c4)cc3)c2)C1.Cl.Cl (single isomer, unassigned)
- Activity [1]: 130%

- IC50 [3]: 30 to 3400 nM
- IC50 [4]: 4300 to 62000 nM
- IC50 [5]: > 30000 nM
- IC50 [6]: 1000 to 100000 nM
Structure (SMILES): CC(C)c1ccc(C(=O)NC(=N)N)cc1S(C)(=O)=O [CARIPORIDE]

Structure (SMILES): CN1Cc2c(Cl)cc(Cl)cc2C(c2ccc(S(=O)(=O)NCCOCCOCCNC(=O)Nc3ccc(NC(=O)NCCOCCOCCNS(=O)(=O)c4ccc(C5CN(C)Cc6c(Cl)cc(Cl)cc65)cc4)cc3)cc2)C1 (stereo not given)
- Activity [1]: 114%

- dose excreted at 72 h [2]: 90.5 to 93.8%
Structure (SMILES): CN1Cc2c(Cl)cc(Cl)cc2[C@H](c2cccc(S(=O)(=O)NCCOCCOCCNC(=O)NCCCCNC(=O)NCCOCCOCCNS(=O)(=O)c3cccc([C@@H]4CN(C)Cc5c(Cl)cc(Cl)cc54)c3)c2)C1.Cl.Cl (single isomer, unassigned) [TENAPANOR HYDROCHLORIDE]
- Activity [1]: 134%

- IC50 [3]: 2 nM
- IC50 [4]: 70 nM
- IC50 [6]: 1320 nM
Structure (SMILES): C/C(=C\c1cccc(/C=C(\C)C(=O)NC(=N)N)c1)C(=O)N=C(N)N

Structure (SMILES): CN1Cc2c(Cl)cc(Cl)cc2C(c2ccc(S(=O)(=O)NCCOCCOCCNC(=O)COCC(=O)NCCOCCOCCNS(=O)(=O)c3ccc(C4CN(C)Cc5c(Cl)cc(Cl)cc54)cc3)cc2)C1 (stereo not given)
- Activity [1]: 118%

- Cmax [7]: 8 ng/mL
- AUC at 4 h [8]: 6 ng·h/mL
Structure (SMILES): CN1Cc2c(Cl)cc(Cl)cc2C(c2ccc(S(=O)(=O)NCCOCCOCCNC(=O)C(=O)NCCOCCOCCNS(=O)(=O)c3ccc(C4CN(C)Cc5c(Cl)cc(Cl)cc54)cc3)cc2)C1 (stereo not given)

Structure (SMILES): CN1Cc2c(Cl)cc(Cl)cc2[C@H](c2ccc(S(=O)(=O)NCCOCCOCCNC(=O)COCC(=O)NCCOCCOCCNS(=O)(=O)c3ccc([C@@H]4CN(C)Cc5c(Cl)cc(Cl)cc54)cc3)cc2)C1.Cl.Cl (single isomer, unassigned)
- Activity [1]: 127%
- Activity [9]: Dose-dependent effect

- IC50 [3]: 35000 nM
- IC50 [4]: 310 nM
- IC50 [6]: > 30000 nM
Structure (SMILES): Cc1ccc(F)cc1[C@H]1C/C(=N\N=C(N)N)c2c(C)cccc2C1

Structure (SMILES): CN1Cc2c(Cl)cc(Cl)cc2C(c2cccc(S(=O)(=O)NCCOCCOCCOCCNC(=O)C(O)C(O)C(=O)NCCOCCOCCOCCNS(=O)(=O)c3cccc(C4CN(C)Cc5c(Cl)cc(Cl)cc54)c3)c2)C1 (single isomer, unassigned)
- Activity [1]: 125%

- Cmax [10]: 9 ng/mL
- AUC at 4 h [11]: 23 ng·h/mL
Structure (SMILES): C/C(=C\c1cc(F)c(Oc2ccc(S(=O)(=O)NCCP(=O)(O)O)cc2)c(F)c1)C(=O)N=C(N)N

Structure (SMILES): CN1Cc2c(Cl)cc(Cl)cc2C(c2cccc(S(=O)(=O)NCCOCCOCCNC(=O)c3ccc(C(=O)NCCOCCOCCNS(=O)(=O)c4cccc(C5CN(C)Cc6c(Cl)cc(Cl)cc65)c4)cc3)c2)C1 (stereo not given)
- Activity [1]: 117%

Structure (SMILES): CN1Cc2c(Cl)cc(Cl)cc2C(c2cccc(S(=O)(=O)NCCOCCOCCOCCNC(=O)C(O)C(O)C(=O)NCCOCCOCCOCCNS(=O)(=O)c3cccc(C4CN(C)Cc5c(Cl)cc(Cl)cc54)c3)c2)C1 (stereo not given)
- Activity [12]: Dose-dependent effect

- Cmax [7]: 23 ng/mL
- AUC at 4 h [8]: 19 ng·h/mL
Structure (SMILES): CN1Cc2c(Cl)cc(Cl)cc2C(c2cccc(NCCOCCOCCOCCNC(=O)C(O)C(O)C(=O)NCCOCCOCCOCCNc3cccc(C4CN(C)Cc5c(Cl)cc(Cl)cc54)c3)c2)C1 (stereo not given)

Structure (SMILES): CN1Cc2c(Cl)cc(Cl)cc2C(c2ccc(S(=O)(=O)NCCOCCOCCNC(=O)CCC(=O)NCCOCCOCCNS(=O)(=O)c3ccc(C4CN(C)Cc5c(Cl)cc(Cl)cc54)cc3)cc2)C1 (stereo not given)
- Activity [1]: 121%

Structure (SMILES): CN1Cc2c(Cl)cc(Cl)cc2[C@H](c2ccc(S(=O)(=O)NCCOCCOCCNC(=O)CCC(=O)NCCOCCOCCNS(=O)(=O)c3ccc([C@@H]4CN(C)Cc5c(Cl)cc(Cl)cc54)cc3)cc2)C1.Cl.Cl (single isomer, unassigned)
- Activity [1]: 124%

- IC50 [3]: 5 to 380 nM
- IC50 [4]: 2000 to 17000 nM
- IC50 [5]: > 30000 nM
- IC50 [6]: 100000 to 460000 nM
Structure (SMILES): Cc1cc(-n2cccc2)c(S(C)(=O)=O)cc1C(=O)NC(=N)N [ENIPORIDE]

- Cmax [10]: 2.4 ng/mL
- AUC at 4 h [11]: 5 ng·h/mL
Structure (SMILES): CN1Cc2c(Cl)cc(Cl)cc2C(c2cccc(NC(=O)N[C@@H](CC(=O)O)C(=O)O)c2)C1 (stereo not given in full)

- IC50 [4]: 1800 nM
- IC50 [6]: > 30000 nM
Structure (SMILES): CC1(C)[C@H](C(=O)N=C(N)N)[C@H]1c1cccc2c1CCO2

Structure (SMILES): CN1Cc2c(Cl)cc(Cl)cc2[C@H](c2ccc(S(=O)(=O)NCCOCCOCCOCCNC(=O)NCCOCCOCCOCCNS(=O)(=O)c3ccc([C@@H]4CN(C)Cc5c(Cl)cc(Cl)cc54)cc3)cc2)C1 (mixture of isomers)
- Activity [1]: 120%

Structure (SMILES): CN1Cc2c(Cl)cc(Cl)cc2[C@H](c2cccc(S(=O)(=O)NCCOCCOCCOCCNC(=O)NCCCCNC(=O)NCCOCCOCCOCCNS(=O)(=O)c3cccc([C@@H]4CN(C)Cc5c(Cl)cc(Cl)cc54)c3)c2)C1 (single isomer, unassigned)
- Activity [1]: 118%
- Activity [9]: Dose-dependent effect

- IC50 [3]: 1 nM
- IC50 [4]: 430 nM
- IC50 [6]: 11000 nM
Structure (SMILES): Cc1ccc(F)cc1[C@@H]1C/C(=N\N=C(N)N)c2c(C)cccc2C1

Structure (SMILES): CN1Cc2c(Cl)cc(Cl)cc2C(c2cccc(S(=O)(=O)NCCOCCOCCNC(=O)NCCCCNC(=O)NCCOCCOCCNS(=O)(=O)c3cccc(C4CN(C)Cc5c(Cl)cc(Cl)cc54)c3)c2)C1 (stereo not given)
- Activity [1]: 128%
